A short description of data set [1]: Solubility in water / dissolution buffer. The class given is physicochemical.
Data set [2] in a line: In vitro release of naltrexone from drug-loaded formulations at 37° C. in isotonic phosphate buffer. It counts as physicochemical. The note with it: compared with hydrated naltrexone base; 25% 50/50 PLGA (i.v. 0.64) with pure PEG 400 or 50/50% PEG 400/TEC; drug 20% w/w. How it is done:
The solutions were stirred to yield a uniform mixture. Acetone was evaporated from the mixtures by heating at 60-75° C. with constant stirring. The blank formulations were kept in a vacuum oven at 60-75° C. overnight to ensure complete removal of acetone. […] Either hydrated naltrexone base (20% w/w) or naltrexone hydrochloride (20% w/w) was added to the blank formulations and mixed thoroughly to ensure uniform distribution of the drugs in the formulations. Drug release from the drug-loaded formulations was performed at 37° C. in isotonic phosphate buffer. […] This is because the solubility of the naltrexone hydrochloride in the dissolution buffer is much greater than that of the hydrated naltrexone base.

A short description of data set [3]: In vivo release of oxytetracycline from biodegradable delivery systems in quail. The note with it: delivery systems with varying polymer molecular weights (FIG. 16). The source says:
FIG. 16 describes the effect of varying polymer molecular weights on in vivo release of oxytetracycline base from biodegradable delivery systems.

The nature of data set [4]: In vitro release of oxytetracycline from drug-loaded formulations at 37° C. in isotonic phosphate buffer containing sodium sulfite. It counts as physicochemical. The note with it: for drug release / drug release (rank among plasticizers): drug 20% w/w. How it is done:
A polymer (25% w/w of 50/50 lactide-co-glycolide copolymer, inherent viscosity of 0.59) was dissolved in a minimum quantity of acetone. Pure polyethylene glycol 400 (PEG 400) was added to the polymer solution. The solution was stirred to yield a uniform mixture. Acetone was evaporated from the mixture by heating at 60-75° C. with constant stirring. The blank formulation was kept in a vacuum oven at 60-75° C. overnight to ensure complete removal of acetone. […] Three different concentrations of oxytetracycline base (either 10, 20 or 30% w/w) were added to the blank formulation and mixed thoroughly to ensure uniform distribution of the drug in the formulations. Drug release from the drug-loaded formulations was performed at 37° C. in isotonic phosphate buffer containing sodium sulfite as an antioxidant. […] This increase occurred because, at higher drug-loadings, more drug is available on the surface of the formulations for release. Moreover, a higher drug concentration gradient between the formulation and the dissolution medium is expected at 30% w/w drug-loading compared to the one at 10% w/w drug loading.
(§1) A polymer (25% w/w of 50/50 lactide-co-glycolide copolymer, inherent viscosity of 0.59) was dissolved in a minimum quantity of acetone. […] The resulting solutions were stirred to yield uniform mixtures. Acetone was evaporated from the mixtures by heating at 60-75° C. with constant stirring. The blank formulations were kept in a vacuum oven at 60-75° C. overnight to ensure complete removal of acetone. […] Oxytetracycline base (20% w/w) was added to each blank formulation and mixed thoroughly to ensure uniform distribution of the drug in the formulations. Drug release from the drug-loaded formulations was performed at 37° C. in isotonic phosphate buffer containing sodium sulfite as an antioxidant.
Three different concentrations (10, 20 or 25% w/w) of a polymer (50/50 lactide-co-glycolide copolymer, inherent viscosity of 0.59) were dissolved in a minimum quantity of acetone. Pure PEG 400 (90, 80 or 75% w/w) was added to the polymer solutions. The solutions were stirred to yield uniform mixtures. Acetone was evaporated from the mixtures by heating at 60-75° C. with constant stirring. The blank formulations were kept in a vacuum oven at 60-75° C. overnight to ensure complete removal of acetone. The resulting formulations obtained were matrices with varying viscosities or consistency. The formulation with 25% polymer was considerably more viscous than the one with 10% polymer. Oxytetracycline base (20% w/w) was added to each blank formulation and mixed thoroughly to ensure uniform distribution of the drug in the formulations. Drug release from the drug-loaded formulations was performed at 37° C. in isotonic phosphate buffer containing sodium sulfite as an antioxidant.
as §1, with “overmight” for “overnight”
The resulting solutions were stirred to yield uniform mixtures. Acetone was evaporated from the mixtures by heating at 60-75° C. with constant stirring. The blank formulations were kept in a vacuum oven at 60-75° C. overnight to ensure complete removal of acetone. […] Oxytetracycline base (20% w/w) was added to each blank formulation and mixed thoroughly to ensure uniform distribution of the drug in the formulations. […]

Structures are written as SMILES. Where a name gives a salt, the structure may show the parent alone.

Consider `O=C1CC[C@@]2(O)[C@H]3Cc4ccc(O)c5c4[C@@]2(CCN3CC2CC2)[C@H]1O5` [naltrexone hydrochloride], for which, in data set [1] (compared with hydrated naltrexone base, isotonic phosphate buffer), the “solubility in the dissolution buffer” value is reported as “much greater”. Moreover, the drug release entry in data set [2] is on record as “considerably faster”.

For `CN(C)[C@@H]1C(=O)C(C(N)=O)=C(O)[C@@]2(O)C(=O)C3=C(O)c4c(O)cccc4[C@@](C)(O)[C@H]3[C@H](O)[C@@H]12` [oxytetracycline base], the in vivo release entry in data set [3] was “desired controlled release of the OTC was achieved”. In addition, the drug release entry in data set [4] (blend of 75% PEG 400 and 25% TEC compared with 50/50% PEG 400/TEC at similar polymer to plasticizer ratio) is given as “considerably faster”; in data set [4] (effect of decreasing polymer from 25% to 10% (PEG 400 75% to 90%), 50/50 PLGA i.v. 0.59), “dramatically increased the drug release”; in data set [4] (effect of decreasing polymer inherent viscosity from 0.76 to 0.15, 50/50 PLGA, PEG 400), “dramatically increased the drug release”; in data set [4] (effect of going from 0% PEG 400/100% TEC to 100% PEG 400/0% TEC, 25% w/w 50/50 PLGA (i.v. 0.59)), “faster drug release”; in data set [4] (polymer to plasticizer ratio 1:5 (16.67% polymer) compared with 1:3 (25% polymer), PEG 400/TEC blends) it was “faster drug release”. Also, the “cumulative amount of drug released at the end of 360 hours” value in data set [4] (effect of increasing drug loading from 10 to 30% w/w, 25% w/w 50/50 PLGA (i.v. 0.59), PEG 400) is on record as “increased the cumulative amount of drug released”. In addition, the “drug release (rank among plasticizers)” value in data set [4] (formulations prepared with ATEC, 25% w/w 50/50 PLGA (i.v. 0.59)) is “slowest”; in data set [4] (formulations prepared with PEG 400, 25% w/w 50/50 PLGA (i.v. 0.59)), “fastest”; in data set [4] (formulations prepared with TEC, 25% w/w 50/50 PLGA (i.v. 0.59)), “Intermediate drug release”.

Take `CN(C)[C@@H]1C(O)=C(C(N)=O)C(=O)[C@@]2(O)C(O)=C3C(=O)c4c(O)cccc4[C@@](C)(O)[C@H]3[C@H](O)[C@@H]12` [oxytetracycline hydrochloride]: the aqueous solubility result in data set [1] (hydrochloride salt compared with the base) is reported as “greater aqueous solubility”.
